Assays:
Type in all cases: cell-based
human GPR120 = target: T1, human GPR120 (Homo sapiens, UniProt Q5NUL3); assay: GPR120 β-arrestin 2 recruitment BRET, agonist mode; conditions: HEK293 cells, read-out: GPR120 (agonist mode) EC50 β-arr2
T1 sequence (Q5NUL3 1-361): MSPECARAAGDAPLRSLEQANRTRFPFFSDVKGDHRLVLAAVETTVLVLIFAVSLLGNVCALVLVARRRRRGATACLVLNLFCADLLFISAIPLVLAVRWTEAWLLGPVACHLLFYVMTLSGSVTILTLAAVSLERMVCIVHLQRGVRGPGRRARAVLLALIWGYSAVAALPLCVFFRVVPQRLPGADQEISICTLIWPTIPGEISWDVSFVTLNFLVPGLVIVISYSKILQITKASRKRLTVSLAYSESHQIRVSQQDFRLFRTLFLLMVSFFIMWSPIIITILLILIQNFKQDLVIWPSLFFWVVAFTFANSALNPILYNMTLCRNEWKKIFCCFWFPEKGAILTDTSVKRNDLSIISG
Description: (§1) Plasmids: The cDNA clones for human GPR40 and GPR84 receptors, human β-arrestin 2, Gαi2, Gβ1, and Gγ2 were obtained from the cDNA Resource Center (www.cdna.org). A plasmid encoding the human GPR120-L (long isoform) cDNA was obtained from R&D Systems. GPR120-S (short isoform) was generated by replacing the BglII-BsgI fragment from GPR120-L by a gBlock gene fragment (Integrated DNA Technologies, IA) lacking the DNA sequence corresponding to the extra 16 amino acids found in the third intracellular loop of the long form. GFP10 (F64L, S147P, S202F and H231L variant of Aequorea victoria GFP) gBlocks gene fragments (Integrated DNA Technologies) and linker were inserted in frame at the N-terminus of human Gγ2, or at the C-terminus of GPR40 and GPR120. Rluc8 (A55T, C124A, S130A, K136R, A143M, M185V, M253L, and S287L variant of the Renilla luciferase) gBlocks gene fragment (Integrated DNA Technologies) was inserted with linkers in between residues 91 and 92 of Gα2 or at the N-terminus of β-arrestin 2.
(§2) BRET measurements: a Gαi bioluminescence resonance energy transfer (BRET) biosensor was used to directly monitor GPR84-mediated activation of Gαi. The Gαi biosensor consists of a Rluc8-tagged Gαi2 subunit, a GFP10-tagged Gγ2 subunit, and an untagged Gβ1. Agonist stimulation and ensuing GPR84 activation triggers a physical separation between the RLuc8-Gαi donor and the GFP10-Gγ2 acceptor, resulting in a decrease in BRET signal whose amplitude is correlated to ligand efficacy. A BRET-based assay that allows the monitoring of Rluc8-tagged β-arrestin 2 recruitment to GFP10-tagged GPR40 or GFP10-tagged GPR120 was used to assess GPR40 or GPR120 activation. Transiently transfected HEK293 cells were seeded in 96-well white clear bottom Costar microplates (Fisher Scientific) coated with poly-D-lysine (Sigma-Aldrich) and left in culture for 24 hours. Cells were washed once with Tyrode's buffer (140 mmol/L NaCl, 1 mmol/L CaCl2, 2.7 mmol/L KCl, 0.49 mmol/L MgCl2, 0.37 mmol/L NaH2PO4, 5.6 mmol/L glucose, 12 mmol/L NaHCO3, and 25 mmol/L HEPES, pH 7.5) and the Rluc8 substrate coelenterazine 400A (Prolume, Lakeside, Ariz.) added at a final concentration of 5 μmol/L in Tyrode's buffer. Ligands were incubated with cells at room temperature for 5 minutes (G protein) or 25 minutes (β-arrestin) before reading BRET signal. In GPR84 antagonist mode, cells were treated with 125 μmol/L of the GPR84 agonist sodium decanoate in combination with test compounds. BRET readings were collected using an Infinite M1000 microplate reader (Tecan, Morrisville, N.C.). BRET^2 readings between Rluc8 and GFP10 were collected by sequential integration of the signals detected in the 370 to 450 nm (Rluc8) and 510 to 540 nm (GFP10) windows. The BRET signal was calculated as the ratio of light emitted by acceptor (GFP10) over the light emitted by donor (Rluc8). The values were corrected to net BRET by subtracting the background BRET signal obtained in cells transfected with Rluc8 constructs alone. Ligand-promoted net BRET values were calculated by subtracting vehicle-induced net BRET from ligand-induced net BRET.

human GPR40 = target: T2, human GPR40 (Homo sapiens, UniProt O14842); assay: GPR40 β-arrestin 2 recruitment BRET, agonist mode; conditions: HEK293 cells, read-out: GPR40 (agonist mode) EC50 β-arr2
T2 construct: host or cells: HEK293 (transient)
Description: as §1, §2

human GPR84 [1] = target: T3, human GPR84 (Homo sapiens, UniProt Q9NQS5); assay: GPR84 Gαi BRET biosensor, antagonist mode (125 μmol/L sodium decanoate); conditions: HEK293 cells, with 125 μmol/L sodium decanoate
T3 construct: host or cells: HEK293 (transient)
Description: as §1, §2

human GPR84 [2] = target: T3, human GPR84; assay: GPR84 Gαi BRET biosensor, agonist activity; conditions: HEK293 cells
Description: as §1, §2

T2 sequence (O14842 whole entry): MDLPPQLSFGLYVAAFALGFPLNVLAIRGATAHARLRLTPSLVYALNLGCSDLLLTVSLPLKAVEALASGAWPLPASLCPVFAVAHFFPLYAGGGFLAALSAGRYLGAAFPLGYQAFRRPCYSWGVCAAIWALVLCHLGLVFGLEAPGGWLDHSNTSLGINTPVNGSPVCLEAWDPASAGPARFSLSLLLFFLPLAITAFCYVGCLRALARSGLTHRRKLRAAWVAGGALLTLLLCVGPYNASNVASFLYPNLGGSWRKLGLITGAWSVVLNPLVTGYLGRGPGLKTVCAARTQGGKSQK
T3 sequence (Q9NQS5 whole entry): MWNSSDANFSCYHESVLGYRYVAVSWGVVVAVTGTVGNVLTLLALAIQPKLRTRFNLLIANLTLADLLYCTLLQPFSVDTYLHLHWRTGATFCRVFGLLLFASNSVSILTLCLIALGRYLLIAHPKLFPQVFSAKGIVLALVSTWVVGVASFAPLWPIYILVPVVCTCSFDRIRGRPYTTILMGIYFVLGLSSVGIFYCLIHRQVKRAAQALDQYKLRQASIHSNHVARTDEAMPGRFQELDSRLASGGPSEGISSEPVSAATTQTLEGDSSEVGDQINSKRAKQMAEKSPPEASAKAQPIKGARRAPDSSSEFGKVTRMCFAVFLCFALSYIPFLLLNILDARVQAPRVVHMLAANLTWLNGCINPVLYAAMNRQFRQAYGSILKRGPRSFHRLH

| Structure (SMILES) | EC50 (human GPR120) [µM] | EC50 (human GPR40) [µM] | IC50 (human GPR84 [1]) [µM] | EC50 (human GPR84 [2]) [µM] |
| --- | --- | --- | --- | --- |
| CCCCC[C@H]1CCC[C@@H](CC(=O)O)C1 | 377 | 12 | 56 |  |
| CCCCCCC1C(CC(=O)O)C1(F)F (centres unmarked) | 383 | 126 | 117 |  |
| CCCCCC1C(CCC(=O)O)C1(Br)Br (centres unmarked) | 45 | 16 | 20 |  |
| CCCCCC1C(CCC(=O)O)C1(F)F (centres unmarked) | > 500 | 133 |  | 79 |
| CCCCCCCC1(CC(=O)O)CC1 | ≥ 500 | 122 | > 500 |  |
| CCCCCCC1OC1CC(=O)O (centres unmarked) | > 500 | > 500 |  | 114 |
| CC1(C)CC1CCCCC/C=C/C(=O)O (centres unmarked) | 61 | 22 |  | 6 |

Now from value to molecule:

| EC50 (human GPR120) [µM] | EC50 (human GPR40) [µM] | IC50 (human GPR84 [1]) [µM] | EC50 (human GPR84 [2]) [µM] | Structure (SMILES) |
| --- | --- | --- | --- | --- |
| 245 | 164 | 115 |  | CCCCCCCCC1(C(=O)O)CC1 |
| 272 | 170 |  | < 16 | CCCCCCC1CC1CC(=O)O (centres unmarked) |
| 22 | 21 | 22 |  | CCCC[C@H]1CC[C@H](CCC(=O)O)CC1 |
| > 500 | 321 |  | 36.9 | CCCCCCC1CC1C(=O)C(=O)O (centres unmarked) |
| > 63 | 27 | > 63 |  | CCCCCC1C(CCC(=O)O)C1(C)C (centres unmarked) |
| 299 | 149 |  | 23 | [2H]C1([2H])C(CCCCCCC)C1CC(=O)[O-].[Na+] (centres unmarked) |
| 77 | 11 |  | 5 | CC1(C)CC1CCCCCCCC(=O)O (centres unmarked) |
| > 250 | 49 |  | 13 | CCCCCCCC1CC1C(=O)O (centres unmarked) |
| 35 | 14.3 |  |  | CC1(C)CC1CCCCCC1CC1C(=O)O (centres unmarked) |
